Experimental data from publication PMC6680850, “Anion Inhibition Profile of the β-Carbonic Anhydrase from the Opportunist Pathogenic Fungus Malassezia restricta Involved in Dandruff and Seborrheic Dermatitis” (Metabolites, 2019).
pKi: −log10 of the molar value. Counter-ions that a name gives are not always drawn. Like-named read-outs stand apart in the source and are kept apart here.

How the values were obtained:
[1] = molecular target: β-CA from Malassezia restricta (MreCA) (Malassezia restricta, UniProt A0A3G2S4B9); assay: biochemical; assay type: biochemical
[2] = molecular target: β-CA from Malassezia globosa (MgCA); design: method as in PMID 29152053; conditions: cited from earlier work
hCA I = conditions: cited from earlier work
hCA II = conditions: cited from earlier work; for pKi: pH 8.3
[3] = CO2 hydration reaction, 20 °C, pH 8.3, stopped flow, ref [31]

Chain of β-CA from Malassezia restricta (MreCA) (A0A3G2S4B9 1-238): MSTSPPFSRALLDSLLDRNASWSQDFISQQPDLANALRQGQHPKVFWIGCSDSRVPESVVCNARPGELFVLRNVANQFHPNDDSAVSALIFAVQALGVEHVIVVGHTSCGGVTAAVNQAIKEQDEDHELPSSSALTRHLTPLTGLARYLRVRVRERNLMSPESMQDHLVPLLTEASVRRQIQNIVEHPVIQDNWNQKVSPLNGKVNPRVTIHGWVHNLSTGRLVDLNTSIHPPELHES

Row | Compound | pKi ([1]; pH 8.3, read-out: KI MreCA) | pKi ([2]; pH 8.3) | pKi [2, 3] | other results
1 | OB1OB2OB(O)OB(O1)O2 [B4O7^2−, tetraborate] | 3.40 | 2.07 | – | –
2 | [Br-].[K+] [Br^−, bromide] | < 1.30 | 1.73 | – | pKi (hCA I; pH 8.3): 2.40; pKi (hCA II): 1.20
3 | O=S(=O)(O)C(F)(F)F [CF3SO3^−, trifalate] | 2.35 | – | 2.64 | –
4 | N#CO [CNO^−, cyanate] | < 1.30 | 2.17 | – | –
5 | O=C(O)O [CO3^2, carbonate] | < 1.30 | < 1.00 | – | –
6 | S=C(S)S [CS3^2−, trithiocarbonate] | 3.04 | – | 2.75 | pKi (hCA I; [3]): 5.06
7 | [O-][Cl+3]([O-])([O-])O [ClO4^−, perchlorate] | 2.04 | < 1.00 | – | –
8 | Cl [Cl^−, chloride] | < 1.30 | 2.10 | – | pKi (hCA I; pH 8.3): 2.22
9 | CCN(CC)C(=S)S [Et2NCS2^−, diethyldithiocarbamate] | – | – | 3.52 | pKi [1]: 4.12; pKi (hCA I; [3]): 6.10
10 | F [F^−, fluoride] | < 1.30 | 2.15 | – | –
11 | O=C(O)O [HCO3^−, bicarbonate] | 3.07 | 3.23 | – | –
12 | O=S(O)O [HSO3^−, bisulfite] | < 1.30 | – | < 1.00 | pKi (hCA I; [3]): 1.74
13 | I [I^−, iodide] | 2.07 | – | 2.06 | pKi (hCA I; [3]): 3.52
14 | NS(N)(=O)=O [Inhibitor H2NSO2NH2, sulfamide] | 3.14 | – | 4.03 | –
15 | [N-]=[N+]=[N-] [N3^−, azide] | < 1.30 | 1.34 | – | inhibition of hCA II in words (hCA II): well inhibited
16 | NS(=O)(=O)O [NH2SO3H, sulfamic acid] | 2.11 | – | 4.08 | pKi (hCA I; [3]): 4.68
17 | O=S(=O)(O)NS(=O)(=O)O [NH(SO3)2^2−, iminodisulfite] | < 1.30 | – | 1.67 | pKi (hCA I; [3]): 3.51

Row | Compound | pKi ([1]; pH 8.3, read-out: KI MreCA) | pKi ([2]; pH 8.3) | pKi [2, 3] | other results
18 | O=NO [NO2^−, nitrite] | < 1.30 | 2.12 | – | –
19 | O=[N+]([O-])O [NO3^−, nitrate] | 2.05 | – | 2.09 | pKi (hCA I; [3]): 2.15
20 | O=P(O)(O)OP(=O)(O)O [P2O7^2−, pyrophosphate] | < 1.30 | – | 2.22 | pKi (hCA I; [3]): 1.59
21 | F[P-](F)(F)(F)(F)F [PF6^−, esafluorofosfato] | 2.41 | – | 2.19 | –
22 | O=[As](O)(O)c1ccccc1 [PhAsO3H2, phenylarsonic acid] | – | 4.05 | – | pKi (hCA I; pH 8.3): 1.50; pKi (hCA II): 1.31
23 | OB(O)c1ccccc1 [PhB(OH)2, phenylboronic acid] | – | 4.05 | – | pKi [1]: 2.06; inhibition of hCA I in words (hCA I): not well inhibited; pKi (hCA I; pH 8.3): 1.23
24 | [O]=[Re](=[O])(=[O])[OH] [ReO4^−, perrhenate] | < 1.30 | – | 1.78 | –
25 | [O]=[Ru](=[O])(=[O])=[O] [RuO4^−, perruthenate] | 2.13 | – | 2.05 | –
26 | O=S(=O)(O)OOS(=O)(=O)O [S2O8^2−, peroxydisulfate] | < 1.30 | – | < 1.00 | –
27 | N#CS [SCN^−, thiocyanate] | < 1.30 | 2.08 | – | –
28 | O=S(=O)(O)O [SO4^2−, sulfate] | – | 1.71 | – | –
29 | N#C[SeH] [SeCN^−, selenocyanate] | 3.19 | 2.76 | – | pKi (hCA I; pH 8.3): 4.07
30 | O=[Se](=O)(O)O [SeO4^2−] | 2.77 | 2.13 | – | –
31 | [O]=[Sn]([OH])[OH] [SnO3^2−, stannate] | 3.25 | 2.29 | – | –
32 | O=[Te](=O)(O)O [TeO4^2−, tellurate] | 3.25 | 2.24 | – | pKi (hCA I; pH 8.3): 3.18
33 | [O]=[V]([OH])([OH])[O][V](=[O])([OH])[OH] [V2O7^2−, divanadate] | < 1.30 | – | 2.16 | pKi (hCA I; [3]): 3.27
34 | osmate [OsO5^2−] | 2.07 | 2.21 | – | –
